Patent US5037830A, “Novel thiouracyl derivatives, pharmaceutical compositions containing them and process for preparing same” (Richter Gedeon Vegyeszeti Gyar RT, priority 1989, dated 1991)

Columns and labels:
[1] = test system: spontaneous gastric acid secretion; assay: Gastric acid secretion-inhibiting effect according to Shay's method; format: in vivo, female OFA rats; conditions: for Gastric acid, change / Gastric juice, change: vs control; for Gastric acid, treated: titration with 0.1N NaOH; for ED50: po, gastric acid, Shay rat
Experimental: After being starved for 24 hours, female OFA rats weighing 130 to 160 g were orally treated with the compounds to be tested. (15 animals were used for each dose.) One hour later laparotomy and pylorus ligature were carried out under ether anaesthesia according to Shay [Gastroenterology 5, 43 (1945)]. After 5 hours the animals were killed by an overdose of ether, their stomaches were excised and the volume and acid content of the gastric juice were determined. The acid was measured by titration with 0.1N NaOH, by using Topfer's indicator.

[2] = test system: histamine-induced gastric acid secretion; assay: Inhibition of the histamine-induced gastric acid secretion in dogs; format: in vivo, Beagle dogs
Experimental: (§1) After being starved for 24 hours, Beagle dogs of both sexes weighing 6.3 to 11.9 kg were anaesthetized with sodium pentobarbital (30 mg/kg i.v.). The trachea and femoral veins on both sides were cannulated. After laparotomy the pylorus was ligated, a glass cannula was placed into the anterior side of the stomach and fixed by a purse string suture to the stomach wall, abdominal wall and abdominal skin. A rubber probe was introduced to the stomach through the mouth. The animal thus prepared was put onto a Pavlov's frame. The steady sleep was ensured by the infusion of sodium pentobarbital (5 mg/kg/hour). The stomach was washed with lukewarm water and emptied. The secretion-inducing agents (histamine, pentagastrin, carbachol) were administered in a volume of 12 ml/hour for 2 hours in the following doses:
(§2) After 2 hours the infusion was stopped, the volume of the gastric juice produced was measured and its acid content was determined by titration with 0.1N NaOH by using Topfer's indicator. The compound of Example 1 was administered in a 25 mg/kg i.p. dose to the animals by 30 minutes before starting the infusion.

[3] = test system: pentagastrin-induced gastric acid secretion; assay: Inhibition of the pentagastrin-induced gastric acid secretion in dogs; format: in vivo, Beagle dogs
Experimental: as §1, §2

[4] = test system: carbachol-induced gastric acid secretion; assay: Inhibition of the carbachol-induced gastric acid secretion in dogs; format: in vivo, Beagle dogs
Experimental: as §1, §2

[5] = 25 mg/kg i.p. + Histamine 0.1 mg/kg/hr
[6] = 25 mg/kg i.p. + Pentagastrin 0.03 mg/kg/hr
[7] = 25 mg/kg i.p. + Carbachol 0.02 mg/kg/hr

Cc1cc(=O)[nH]c(SCc2ccccc2N(C)C)n1 [Example 1, 2-(2-dimethylaminobenzyl)thio-6-methyl-4(3H)-pyrimidinone]
Gastric juice, treated ([1]; 10 mg/kg p.o.): 6.76 mL | Gastric acid, change ([1]; 10 mg/kg p.o.): -28.2% | Gastric juice, change ([1]; 10 mg/kg p.o.): -10.6% | Gastric acid, treated ([1]; 10 mg/kg p.o.): 2.45 mL | Gastric juice, treated ([1]; 20 mg/kg p.o.): 6.15 mL | Gastric acid, change ([1]; 20 mg/kg p.o.): -65.1% | Gastric juice, change ([1]; 20 mg/kg p.o.): -12.9% | Gastric acid, treated ([1]; 20 mg/kg p.o.): 1.17 mL | Gastric juice, treated ([1]; 40 mg/kg p.o.): 4.51 mL | Gastric acid, change ([1]; 40 mg/kg p.o.): -92.4% | Gastric juice, change ([1]; 40 mg/kg p.o.): -34.4% | Gastric acid, treated ([1]; 40 mg/kg p.o.): 0.22 mL | inhibitor effect on gastric acid secretion, in words ([1]; compared with reference drugs): equiactive to the NC-1300 reference drug | ED50 [1]: 15 mg/kg | Gastric acid volume [2, 5]: 3.90 ml/kg/2 hr | Gastric acid, change [2, 5]: -75% | Gastric juice volume [2, 5]: 3.85 ml/kg/2 hr | Gastric juice, change [2, 5]: -69% | inhibition of gastric acid secretion, in words ([2]; dogs compared with rats, histamine): with the same efficiency in dogs as in rats | Gastric acid volume [3, 6]: 1.43 ± 0.77 ml/kg/2 hr | Gastric acid, change [3, 6]: -76% | Gastric juice volume [3, 6]: 2.90 ± 0.48 ml/kg/2 hr | Gastric juice, change [3, 6]: -54% | inhibition of gastric acid secretion, in words ([3]; dogs compared with rats, pentagastrin): with the same efficiency in dogs as in rats | Gastric acid volume [4, 7]: 1.84 ± 0.74 ml/kg/2 hr | Gastric acid, change [4, 7]: -80% | Gastric juice volume [4, 7]: 2.55 ± 0.79 ml/kg/2 hr | Gastric juice, change [4, 7]: -69% | inhibition of gastric acid secretion, in words ([4]; dogs compared with rats, carbachol): with the same efficiency in dogs as in rats

CN(C)c1ccccc1C[S+]([O-])c1nc2ccccc2[nH]1 (stereo not drawn) [NC-1300, 2-[(2-dimethylaminobenzyl)sulfinyl]-1H-benzimidazole, reference compound]
Gastric juice, treated ([1]; 10 mg/kg p.o.): 6.11 mL | Gastric acid, change ([1]; 10 mg/kg p.o.): -34.0% | Gastric juice, change ([1]; 10 mg/kg p.o.): -16.3% | Gastric acid, treated ([1]; 10 mg/kg p.o.): 2.74 mL | Gastric juice, treated ([1]; 20 mg/kg p.o.): 4.63 mL | Gastric acid, change ([1]; 20 mg/kg p.o.): -58.2% | Gastric juice, change ([1]; 20 mg/kg p.o.): -17.5% | Gastric acid, treated ([1]; 20 mg/kg p.o.): 1.36 mL | Gastric juice, treated ([1]; 50 mg/kg p.o.): 4.50 mL | Gastric acid, change ([1]; 50 mg/kg p.o.): -88.1% | Gastric juice, change ([1]; 50 mg/kg p.o.): -23.7% | Gastric acid, treated ([1]; 50 mg/kg p.o.): 0.41 mL | ED50 [1]: 16 mg/kg
